Source: patent US20260284020A1, “LATS KINASE INHIBITOR TO TREAT RETINAL DEGENERATION” (Children's Hospital Los Angeles, priority 2023, published 2026)
Entries after “also recorded” stand apart in the source; their conditions may differ. Like-named read-outs stand apart in the source and are kept apart here.

Columns and labels:
Solubility of the drug = format: physicochemical
RPE monolayers = experiment: Toxic effects in vitro; format: cell-based, human
[1] = tested on: RPE injury by laser photocoagulation in Dutch-belted rabbits; experiment: In vivo laser injury model: fundus photos and OCT imaging; parameters: species or system rabbit; conditions: listed as LKI; for OCT appearance of RPE layer at laser spots compared to control / pigmentation of laser spots on fundus photos compared to control: intravitreal 50 μL of 15 mM
Source text: Laser photocoagulation was used as a model for RPE injury in vivo. Prior to laser photocoagulation, Dutch-belted rabbits were sedated with ketamine and xylazine. Eyes were anesthetized with topical proparacaine and dilated with phenylephrine and tropicamide. Lubricating drops and gel were applied to prevent desiccation of the cornea.
To evaluate the effect of LATS kinase inhibition on the RPE injury response in vivo, following sedation and pharmacologic dilation, laser photocoagulation was delivered in a 6×6 grid pattern to both eyes with a 532 nm green laser (Iridex Corporation, Mountain View, CA, USA) mounted on an indirect ophthalmoscope. Power was set to 170 mW and pulse duration was set to 40 ms. Following the laser procedure, fundus photos of both eyes were obtained using a 28-diopter lens and smartphone. OCT images of both eyes were obtained on a SPECTRALIS (Heidelberg Engineering, Heidelberg, Germany) imaging system. Fundus photos and OCT images were again obtained at 1- and 4-week time points.
Dutch-belted rabbits were sedated and underwent photocoagulation of both eyes as described above, with the exception of lesion intensity alteration. Instead, laser power was held at 170 mW and pulse duration remained at 40 ms.
(§1) Following the laser procedure, the eyes were anesthetized once more with topical proparacaine. Povidone-iodine was applied to the conjunctiva or sclera using sterile Q-tips. Either 50 μL of 15 mM LATS kinase inhibitor (LKI), or vehicle control, was injected per eye using 1 mL Luer-lock syringe with a 27G 1½ inch needle. The second generation LKI, TDI-011536, was used as a micro-suspension formulation prepared in phosphate buffer solution (PBS; Sigma) supplemented with 0.5% carboxymethyl cellulose (Sigma) and 0.5% Kolliphor P 188 Bio (BASF Pharma). Intravitreal injections containing LKI were administered in the right eye and control injections were administered in the left eye. Injections were administered 1-2 mm posterior to the superotemporal or superonasal limbus and delivery of each compound was confirmed on indirect ophthalmoscopy.
To evaluate the effect of Lats kinase inhibition on the RPE injury response in vivo, 17 Dutch-belted rabbits received photocoagulation procedure to cause focal disruptions of the RPE and photoreceptor layers in a 6×6 grid of laser spots. Following photocoagulation, each animal received an intravitreal injection of 50 μL of 15 mM LKI in the right eye ([…]) and 50 μL vehicle in the left eye (n=17 eyes). Fundus photos and OCT imaging were performed immediately following the laser procedure and at 1- and 4-week time points. Three independent experiments were performed.

Dutch-belted rabbits = experiment: Toxic effects / tolerability of intravitreal injection in vivo; parameters: species or system rabbit
Method: as §1

[2] = tested on: primary human fetal RPE monolayers; experiment: In vitro cell proliferation (EdU+ cells) in RPE monolayers; format: cell-based; conditions: for percentage of EdU+ cells / EdU+ cells compared to DMSO in the absence of injury (in words): 96 hours; for percentage of EdU+ cells: 1 μM, mean±SE; for EdU+ cells compared to DMSO in the absence of injury (in words): uninjured monolayers
Method: Following 72-hour acclimation period, RPE monolayers were then subjected to a controlled horizontal scratch using the WoundMaker Tool™ (Essen BioScience Ltd., Welwyn Garden City, United Kingdom) according to the protocol provided by the manufacturer. Wells were subsequently washed 1-2 times with their respective media in order to remove cell debris. Cells were then treated with either 1 μM DMSO (as control) or 1 μM TDI-011536 dissolved in either FBS-containing or FBS-free media. To label and track proliferating cells, cells were incubated with 10 μM 5-Ethynyl-2′-deoxyuridine (EdU) for 96 hours.
Ninety-six hours after the scratch, cells were immediately fixed with 4% paraformaldehyde (PFA) in phosphate-buffered saline (PBS) for 15 minutes at room temperature (RT). Cells were washed three times with PBS in between each step. Following fixation, cells were blocked and permeabilized with 3% bovine serum albumin (BSA) and 0.1% Triton X-100 in PBS for 2 hours at RT. Cells were then incubated with an EdU reaction cocktail according to the manufacturer's instructions for 30 minutes at RT, protected from light. Then, cells were incubated overnight with primary antibodies diluted in 3% BSA in PBS. The following morning, cells were incubated with secondary antibodies diluted in 3% BSA in PBS for 2 hours at RT, protected from light. Cells were counterstained with DAPI and then washed. A list of reagents and dilutions used can be found in Table 1.
Regions measuring 800 μm^2 at various distances from the scratch within each well were analyzed. In uninjured wells, three regions were randomly selected within each well. In scratched wells, three regions were centered within the original scratch area (scratch region), which was determined by overlaying the brightfield image taken immediately post-scratch over the fluorescence images 96 hours post-scratch. Another three regions were selected immediately adjacent to the original scratch area but not within it (proximal region). Finally, three additional regions at least 800 μm from the original scratch area were selected (distal region). Apart from scratch regions, only regions that were intact and confluent immediately post-scratch were analyzed. Regions with significant cell loss or those that were otherwise not confluent following the scratch were excluded from analysis.
Within each region, cell proliferation was quantified by dividing EdU/DAPI doubly positive cells by the total number of DAPI+ cells, expressed as a percentage. PAX6 expression was quantified as the ratio of PAX6+ nuclei among EdU/DAPI doubly positive nuclei, also expressed as a percentage.
To assess the effect of Lats kinase inhibition on cell proliferation in the absence of injury, RPE monolayers were incubated with EdU for 96 hours with the addition of LKI or DMSO. Cell proliferation was quantified as the percentage of EdU+ cells within 3 randomly selected regions within each well.
To assess whether Lats kinase inhibition accelerates wound healing via RPE proliferation in vitro, and the mechanism of wound closure with Lats kinase inhibition, RPE monolayers were incubated with EdU following the initial scratch and remained exposed to EdU for 96 hours. At 96 hours, cells were fixed and stained for various cell markers. The percentage of EdU+ cells within scratch, proximal, and distal regions was recorded (FIG. 2A).

[3] = proximal regions, FBS-free media
[4] = scratch regions, FBS-free media

Structure (SMILES): O=C(/N=c1\scc(CO)n1Cc1ccccc1)c1c[nH]c2ncccc12 [TDI-011536]
- solubility (in words) (Solubility of the drug): highly insoluble
- toxic effects in vitro (RPE monolayers): No toxic effects
- toxic effects in vitro (RPE monolayers; listed as LKI): no toxic effects
- OCT appearance of RPE layer at laser spots compared to control ([1]; 1 week after laser): thickening of the RPE layer with associated shadowing; also recorded: Shadowing (*) was common; also recorded: appeared thicker with increased shadowing
- pigmentation of laser spots on fundus photos compared to control ([1]; 1 week after laser): hyperpigmentation of laser spots; also recorded: increased pigmentation
- OCT appearance of RPE layer at laser spots compared to control ([1]; 4 weeks after laser): more pronounced; also recorded: Shadowing (*) was common; also recorded: significantly increased thickness of the RPE layer
- pigmentation of laser spots on fundus photos compared to control ([1]; 4 weeks after laser): more pronounced; also recorded: robust increase in pigmentation
- persistence of LKI microsuspension (depot) in the eye ([1]; rabbit eye, intravitreal 50 μL of 15 mM microsuspension): visible after 1 week; also recorded: up to a month
- tolerability of intravitreal injection (Dutch-belted rabbits; animal model): well-tolerated
- toxic effects in vivo (Dutch-belted rabbits; rabbit, in vivo): no toxic effects
- percentage of EdU+ cells in monolayers not subjected to injury (in words) ([2]; discussion, media not stated): only a modest increase
- percentage of EdU+ cells ([2]; distal regions, FBS-free media): 3.20±0.48%
- difference in percentage of EdU+ cells, LKI vs control ([2]; distal regions, FBS-free media): 0.91±0.62%
- percentage of EdU+ cells compared to control (in words) ([2]; distal regions, FBS-free media): no significant difference
- percentage of EdU+ cells [2, 3]: 10.25±1.30%
- difference in percentage of EdU+ cells, LKI vs control [2, 3]: 7.36±1.38%
- percentage of EdU+ cells compared to control (in words) [2, 3]: significantly higher percentage of EdU+ cells
- percentage of EdU+ cells [2, 4]: 40.11±2.07%
- difference in percentage of EdU+ cells, LKI vs control [2, 4]: 6.88±2.80%
- percentage of EdU+ cells compared to control (in words) [2, 4]: significantly higher percentage of EdU+ cells
- percentage of EdU+ cells compared to control (in words) ([2]; scratched monolayers, FBS-containing media): significantly higher percentage of EdU+ cells at the scratch site and proximal areas but not distal areas
- EdU+ cells compared to DMSO in the absence of injury (in words) ([2]; FBS-containing media): significantly more EdU+ cells
- EdU+ cells compared to DMSO in the absence of injury (in words) ([2]; FBS-free media): significantly more EdU+ cells
